The subject of assay [1] is Male C57BL/6 Rj mice. Kind of assay: In vivo evaluation of CXCR4 antagonistic activity by mobilisation of blood cells. Further details: species or system mouse. The settings on record: 20 mg/kg single i.p., 2:30 h after injection; shown also for neutrophils, monocytes, lymphocytes, eosinophils. How it is done: Male C57BL/6 Rj mice (7 weeks old) were obtained from Janvier (Le Genest-Saint-Isle, France). Mice were treated by a single intraperitoneal (i.p.) administration at timepoint 0 h. The experimental groups (n=10) were defined as follows: • Mice of group 1 were treated with vehicle only (0.9% NaCl aqueous solution) • Mice of group 2 were treated with AMD3100 (CXCR4 antagonist, Sigma-Aldrich, St Louis, USA) at 20 mg/kg (volume of 10 mL/kg) in 0.9% NaCl aqueous solution • Mice of group 3 were treated with an exemplary compound of formula (I), i.e. Example 60, at 30 mg/kg (volume of 10 mL/kg) in 0.9% NaCl aqueous solution
After 2:30 h, whole blood (at least 200 μl, max 1 mL) was collected in EDTA tubes before sacrifice by an intracardiac puncture under isoflurane anaesthesia and haematology parameters were determined the same day by laser flow cytometry, optical fluorescence and Laminar Flow Impedance™ using the ProCyte Dx hematology analyser (IDEXX, Eau Claire, USA). Differential leukocyte counts were performed to quantify specific immune cell types. Data are reported as total number of cells (K/μL), mean±S.E.M., as well as the statistical significance versus the vehicle control group using unpaired t-tests.

Assay [2] relates to irrelevant G-protein coupled receptor (GPCR). Kind of assay: G.Validation fluorescence assay on irrelevant GPCR control. Particulars: SDF1α 15 μM, AMD3100 100 μM, Example 60 150 μM; SB3L1. The class given is biochemical.
Assay [3] has as its target T1, Recombinant CXCR4 receptor (Homo sapiens, UniProt P61073).
T1 construct: host or cells: HEK-293 T cells
Kind of assay: G.Validation fluorescence assay of CXCR4 receptor conformational changes in lipidic micelles SB2L4 and SB3L1. Particulars: SB2L4 and SB3L1, 40 min. Type of assay: biochemical. From the text:
G.Validation® assay is […] biotech proprietary fluorescence based assay that assesses conformational changes of a receptor upon activation/inactivation. Recombinant CXCR4 receptor is produced and purified from HEK-293 T cells using […] proprietary mixes. Receptor is then reconstituted in detergent buffers containing lipids mimicking the lipidic composition of dendritic cells (DC) and macrophages (SB2L4 and SB3L1). Thereafter, the receptor is labelled with a non-modifying probe allowing the detection of the activation state and conformational change of the receptor upon addition of a ligand. Indeed, the probe emission spectra maximum wavelength (Amax) shifts according to activation/inactivation of the receptor. Thus, kinetic of activation/inactivation of the receptor can be followed by monitoring Amax shift after addition of a ligand over time. Emission spectra were registered for 40 minutes after addition of each ligand. […] Activation/inactivation kinetics were also followed using an exemplary compound of formula (I), i.e.

Assay [4] has as its system monocytes from healthy donors. Kind of assay: Intracellular TNFα, IL-6 and IL-1β production by R848-activated monocytes after CXCR4 siRNA knockdown or AMD3100 block (flow cytometry). Type of assay: cell-based, human. From the text: The blood from healthy donors was obtained from “Etablissement Français du Sang” (convention #19/EFS/029), Paris, France.
Peripheral blood mononuclear cells (PBMCs) were isolated by density centrifugation from peripheral blood leukocyte separation medium, lymphoprep (Stemcell Technologies, Vancouver, Canada).
Monocytes used for in vitro experiments as described in part C/D were purified by positive selection with human CD14 microbeads (Miltenyi Biotec, Bergisch Gladbach, Germany) from PBMCs.
Monocytes were cultured in RPMI 1640 (Sigma-Aldrich, St Louis, USA) containing 10% heat-inactivated Fetal Bovine Serum (FBS, Sigma-Aldrich, St Louis, USA) at 37° C./5% CO2.
PBMCs and monocytes used herein were prepared as described in part A ‘Immune cells preparation’, above. Monocytes as prepared in part C ‘In vitro knockdown using siRNA or CXCR4 antagonist treatment’ and D ‘Quantification of TNFα, IL-6 and IL1β productions’ were incubated with one exemplary compound of formula (I), i.e. […] Monocytes were analysed by flow cytometry. For intracellular TNFα, IL-6 and IL-1p labelling as described in Part D ‘Quantification of TNFα, IL-6 and IL-1β productions’, Brefeldin A (BFA) was added to the cells 30 minutes after R848 stimulation.
Isolated monocytes were seeded at 10^5 cells/100 μL in 96-well plates and incubated at 37° C.
Monocytes were then treated with small interfering RNA (siRNA) which target the chemokine receptor CXCR4 mRNA (siCXCR4) (Smart Pool, Dharmacon, Lafayette, USA), or with control siRNAs (siCTL) and coupled to a transfection agent DOTAP (Roche Applied Science, Penzberg, Germany). The mix was gently mixed and incubated at room temperature for 15 minutes. After incubation, the mix was added to cells in culture at a final concentration of 160 nM. Finally, cells were incubated at 37° C. for 24 hours.
Alternatively, monocytes were treated after seeding with the CXCR4 antagonist AMD3100 (Sigma-Aldrich, USA) at 20 μM for 1 hour.
Monocytes as treated in part C, were washed in phosphate-buffered saline (PBS) and incubated with a viability marker (Zombie Aqua, Biolegend, San Diego, USA) for 30 minutes at room temperature. After washing, cells were resuspended in PBS containing 2% FBS and 2 mM ethylenediaminetetraacetic acid (EDTA) and labelled with anti-CD14 antibody (clone REA599, Miltenyi Biotech, Bergisch Gladbach, Germany), used at 1:100. For intracellular labelling of TNFα, IL-6 and IL-1β, the “Inside Stain” kit (Miltenyi Biotec, Bergisch Gladbach, Germany) was used according to the manufacturer's protocol. Cells were fixed for 20 minutes at room temperature with 250 μL of Inside Fix solution and then labelled in 100 μL of Inside Perm solution containing anti-TNFα antibody (clone cA2), anti-IL-6 antibody (clone REA1037) or anti-IL-1p antibody (clone REA1172) at 1/500 for 30 minutes at room temperature (all from Miltenyi Biotec, Bergisch Gladbach, Germany). Data acquisition was performed on the Canto II flow cytometer using Diva software (BD Biosciences, San Jose, USA). FlowJo software was used to analyse the data.
(A flow cytometer gives signals particle by particle.)

Assay [5] relates to peripheral blood mononuclear cells (PBMCs) from healthy donors. The experiment in a line: IFN production by R848-activated PBMCs, quantified with twINNE luciferase reporter cell line. The settings on record: Homo sapiens, PBMC; read-out: IC50 of anti-inflammatory activity (IFN production by activated PBMCs). Type of assay: cell-based, human. The procedure, abridged: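 Healthy-donor PBMCs (4.10^6/mL, RPMI/10% FBS) were pre-treated with compound, then stimulated with R848 at 5 μg/mL for 24 h. Supernatants were put on twINNE cells, which carry luciferase under five ISREs, for 24 h, and Bright-Glo luminescence was read. IC50 values came from variable-slope dose-response fits.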
On the technique in general: A reporter such as luciferase makes a cellular process visible.

Assay [6] addresses T2, human CXCR4 (hCXCR4) receptor (Homo sapiens, UniProt P61073).
T2 construct: expressed in transfected cells; host or cells: HEK-293 T cells, transient co-transfection with polyethylenimine
The experiment in a line: BRET assay of antagonist activity on the CXCR4-CXCL12 signaling pathway (Gαi2 recruitment) in HEK-293 T cells. The class given is cell-based. The settings on record: HEK-293 T cells with hCXCR4, Gαi2 and BRET biosensors; 10 min with compound, then EC80 CXCL12. How it is done:
Examples of the present invention were tested for their antagonist activity on human CXCR4 (hCXCR4) receptor transiently over-expressed in HEK-293 T cells. Compounds exert antagonist activity if they decrease the action of CXCL12 on the receptor.
The specific effector (luciferase tagged: BRET donor) recruited at the membrane will be in close proximity to a plasma membrane anchor (GFP tagged: BRET acceptor) to induce a BRET signal (Hamdan et a1, 2006, Chapter 5, Current Protocols in Neuroscience).
HEK-293 T cells are maintained in Dulbecco's Modified Eagle's Medium supplemented with 10% Foetal Calf Serum, 1% Penicillin/Streptomycin at 37° C./5% CO2. Cells are co-transfected using polyethylenimine (25 kDa linear) with several DNA plasmids encoding: hCXCR4; Gai2; an intracellular effector fused to luciferase (BRET donor); a plasma membrane effector fused to GFP (BRET acceptor). After transfection, cells are cultured for 48 h at 37° C./5% CO2. On the day of the assay, cells are detached using trypsin 0.05%, resuspended in assay buffer (1.8 mM CaCl2, 1 mM MgCl2, 2.7 mM KCl, 137 mM NaCl, 0.4 mM NaH2PO4, 5.5 mM D-Glucose, 11.9 mM NaHCO3, 25 mM Hepes) and seeded in 384 well plate at a density of 20,000 cells per well. Then, plates are equilibrated 3.5 h at 37° C. before adding compounds. Compounds and luciferase substrate are added to the cells using an automated device (Freedom Evo®, Tecan) and BRET readings are collected on EnVision (PerkinElmer) with specific filters (410 nm BW 80 nm, 515 nm BW 30 nm).
Cells are first incubated for 10 minutes with the compound alone. Then, cells are stimulated by an EC80 CXCL12 concentration for additional 10 minutes and luminescence is recorded. EC80 CXCL12 concentration is the concentration giving 80% of the maximal CXCL12 response. Antagonist activity is evaluated in comparison to basal signals evoked by EC80 CXCL12 alone.
For IC50 determination, a dose-response test is performed using 20 concentrations (ranging over 6 logs) of each compound. Dose-response curves are fitted using the sigmoidal dose-response (variable slope) analysis in GraphPad Prism software (GraphPad Software) and IC50 of antagonist activity is calculated. Dose-response experiments are performed in duplicate, in two independent experiments.
HEK-293 T cells were transfected to allow measuring the recruitment of Gai2 proteins involved in intracellular signaling by human CXCR4 receptor (hCXCR4) via the BRET technology. Cells were then incubated with various concentrations of examples of the invention before stimulation with an EC80 concentration of CXCL12.
For orientation: Bioluminescence resonance energy transfer reports proximity on the nanometre scale.

Setting [7] is: AMD3100 20 μM, Example 77 10, 50 and 500 nM, R848.

Structures can show the parent of a compound that is named as a salt.

T1 sequence (P61073 whole entry): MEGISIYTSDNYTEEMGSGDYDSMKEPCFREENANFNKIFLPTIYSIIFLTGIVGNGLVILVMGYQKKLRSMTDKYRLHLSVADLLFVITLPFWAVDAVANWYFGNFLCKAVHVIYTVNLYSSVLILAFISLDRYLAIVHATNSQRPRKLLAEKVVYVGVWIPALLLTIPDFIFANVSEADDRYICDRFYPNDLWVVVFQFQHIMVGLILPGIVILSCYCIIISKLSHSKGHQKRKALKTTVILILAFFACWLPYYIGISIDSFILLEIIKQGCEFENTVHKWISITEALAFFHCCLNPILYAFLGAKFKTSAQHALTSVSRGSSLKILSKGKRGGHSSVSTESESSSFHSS
T2 sequence (P61073 whole entry): as above

With `c1cc(CN2CCCNCCNCCCNCC2)ccc1CN1CCCNCCNCCCNCC1` [AMD3100, plerixafor, reference compound], the “numbers of white blood cells in the blood vs vehicle control” value in assay [1] is given as “significantly higher”. In addition, in assay [2], the “irrelevant GPCR activation state, Amax shift in fluorescence” value is “Neither benchmark ligands SDF1α and AMD3100, nor Example 60 showed any effect”. In addition, the “CXCR4 structural activation/inactivation, Amax shift in fluorescence” value in assay [3] (ligand 100 μM added after Example 60 150 μM) is “did not reverse Example 60 effect”; in assay [3] (ligand 100 μM added after SDF1α 15 μM), “reversed SDF1α effect with a blue shift”.

Take `c1ccc2c(c1)CN=C(SCCN1CCCC1)N2` [Example 77, 2-((2-(pyrrolidin-1-yl)ethyl)thio)-1,4-dihydroquinazoline dihydrochloride]: in assay [4] (setting [7]), the “IL-1β production by activated monocytes in the presence of Example 77 with CXCR4 blocked by AMD3100” value was “restored” and the “TNFα production by activated monocytes in the presence of Example 77 with CXCR4 blocked by AMD3100” value is listed as “restored”. Also, the “IL-1β production by activated monocytes in the presence of Example 77 after CXCR4 siRNA” value in assay [4] (siCXCR4 vs siCTL, Example 77 50 nM, R848 1 μg/mL, % IL-1β positive cells) is given as “restored”. Besides, in assay [4] (siCXCR4 vs siCTL, Example 77 50 nM, R848 1 μg/mL, % IL-6 positive cells), the “IL-6 production by activated monocytes in the presence of Example 77 after CXCR4 siRNA” value is “restored”. In assay [4] (siCXCR4 vs siCTL, Example 77 50 nM, R848 1 μg/mL, % TNFα positive cells), the “TNFα production by activated monocytes in the presence of Example 77 after CXCR4 siRNA” value is given as “restored”. In addition, in assay [5], the IC50 was no more than 10 µM. For the same compound, in assay [6], the IC50 is no less than 15 µM.

By IC50 is commonly meant the concentration that inhibits the measured activity by half.
